Read-outs that look alike come from different tables or passages of the source. Values belong to the compound of their own block, whether it stands above or below them.
Key:
T. cruzi amastigotes [1] = assay: Activity against T. cruzi amastigotes in culture; type: cell-based, Trypanosoma cruzi; conditions: for EC50: Trypanosoma cruzi, read-out: T. cruzi EC50(nM), T. cruzi amastigotes in culture; for fold increase in potency compared with compound 12: T. cruzi cultures; for fold drop in potency on replacement of the aniline moiety: versus amino compound (compound 2)
T. cruzi amastigotes [2] = conditions: read-out: EC50 against T.cruzi in culture; cited from earlier work
T. cruzi = conditions: ref previous studies; cited from earlier work
[3] = target: T. cruzi sterol 14α-demethylase (CYP51) (Trypanosoma cruzi, UniProt Q7Z1V1); assay: Spectral response; conditions: P450 2.2 μM; titration range 0.4-7.6 μM
T. cruzi sterol 14α-demethylase (CYP51), sequence (Q7Z1V1 whole entry): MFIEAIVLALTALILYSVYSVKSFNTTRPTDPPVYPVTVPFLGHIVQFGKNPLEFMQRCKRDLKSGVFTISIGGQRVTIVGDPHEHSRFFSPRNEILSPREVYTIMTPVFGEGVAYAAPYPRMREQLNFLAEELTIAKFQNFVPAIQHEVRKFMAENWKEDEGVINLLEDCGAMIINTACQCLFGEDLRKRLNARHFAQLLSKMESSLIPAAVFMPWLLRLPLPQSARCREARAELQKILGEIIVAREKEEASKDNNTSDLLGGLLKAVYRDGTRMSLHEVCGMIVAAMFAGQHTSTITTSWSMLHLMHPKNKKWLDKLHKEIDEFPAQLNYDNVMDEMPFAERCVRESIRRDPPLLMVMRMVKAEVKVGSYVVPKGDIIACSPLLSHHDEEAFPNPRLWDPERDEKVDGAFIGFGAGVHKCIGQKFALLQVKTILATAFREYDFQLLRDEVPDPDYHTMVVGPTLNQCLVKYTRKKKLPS

SMILES: Nc1cc(-c2ccccc2)ccc1Cn1cncc1CNc1ccc(F)cc1 [Compound 36p]
activity against T.cruzi amastigotes (in words) (T. cruzi amastigotes [1]): excellent activity

EC50 (T. cruzi amastigotes [1]): < 10 nM
SMILES: Nc1cc(-c2ccccc2)ccc1Cn1cncc1CNc1ccc(Cl)c(Cl)c1 [Compound 36f]

SMILES: Fc1ccc(NCc2cncn2Cc2ccc(-c3ccccc3)cc2F)cc1 [Compound 24b]
fold drop in potency compared with compound 12 (T. cruzi amastigotes [1]; against T. cruzi, versus compound 12): less than 4 fold

SMILES: Nc1ccc(-c2cc(NCc3cncn3Cc3ccc(-c4ccccc4)cc3)ccc2-c2nc3ccccc3s2)cc1 [Compound 12k]
fold increase in potency compared with compound 12 (T. cruzi amastigotes [1]; versus compound 12): > 10 fold

SMILES: COc1cc(-c2ccccc2)ccc1Cn1cncc1CNc1ccc(Cl)c(-c2ccccc2)c1 [Compound 24n]
fold drop in potency on replacement of the aniline moiety (T. cruzi amastigotes [1]): > 27 fold

SMILES: CC[C@@H]([C@H](C)O)n1ncn(-c2ccc(N3CCN(c4ccc(OC[C@@H]5CO[C@@](Cn6cncn6)(c6ccc(F)cc6F)C5)cc4)CC3)cc2)c1=O [posaconazole]
EC50 (T. cruzi amastigotes [2]): < 1 nM

SMILES: O=C(O)c1cc(-c2ccccc2)ccc1Cn1cncc1CNc1ccc(-c2nc3ccccc3s2)c(-c2ccccc2)c1 [Compound 24q]
fold drop in potency on replacement of the aniline moiety (T. cruzi amastigotes [1]): > 27 fold

EC50 (T. cruzi amastigotes [1]): < 20 nM
SMILES: Fc1cc(-c2ccccc2)ccc1Cn1cncc1CNc1ccc(F)c(-c2ccccc2)c1 [Compound 24a]

SMILES: Oc1cc(-c2ccccc2)ccc1Cn1cncc1CNc1ccc(Cl)c(-c2ccccc2)c1 [Compound 24o]
fold drop in potency on replacement of the aniline moiety (T. cruzi amastigotes [1]): > 27 fold

EC50 (T. cruzi amastigotes [1]): < 10 nM
SMILES: Nc1cc(-c2ccccc2)ccc1Cn1cncc1CNc1ccc(Cl)c(-n2ccnc2)c1 [Compound 36h]

SMILES: Nc1cc(-c2ccccc2)ccc1Cn1cncc1CNc1ccc(Cl)cc1 [Compound 36k]
activity against T.cruzi amastigotes (in words) (T. cruzi amastigotes [1]): excellent activity

SMILES: Nc1cc(-c2ccccc2)ccc1Cn1cncc1CNc1ccc(-c2nc3ccccc3s2)c(-c2ccccc2)c1 [Compound 2]
fold increase in potency compared with compound 12 (T. cruzi amastigotes [1]; versus compound 12): 20 fold
efficacy in the acute model of the disease (T. cruzi): highly efficacious

binding to the haem moiety in the CYP51 active site (spectral type) [3]: Soret Type II binding spectra
SMILES: COc1ccc(NCc2cncn2Cc2ccc(-c3ccccc3)cc2N)nc1-c1ccccc1 [Compound 26c]

SMILES: Cc1cc(NCc2cncn2Cc2ccc(-c3ccccc3)cc2N)ccc1Cl [Compound 36j]
activity against T.cruzi amastigotes (in words) (T. cruzi amastigotes [1]): excellent activity

Reference: paper PMC4111244 (Bioorganic & medicinal chemistry letters, 2013)
